Assay results taken from PubChem BioAssay AID1918994 (Molecular Pharmacology Branch, DTP, NCI, 2023).
pIC50: −log10 of the molar value.

Test system: 292921-168-R-J2-PDC complex spheroid growth
Assay: Anticancer human tumor 292921-168-R-J2-PDC patient-derived pancreatic carcinoma cell line growth inhibition [AhR]
Settings: for pIC50: curve of first compound; for viability, T/C: stronger effect = lower value; active = viability on the fitted dose curve at most 10% of control; inactive = the rest
In short: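 Complex tumor spheroids co-cultured with HUVEC and human MSC stroma; AhR antagonists tested in combination with standard-of-care and investigational agents. Top concentration at or near clinical Cmax (else 10 microM), half-log dilutions; growth expressed as percent test/control.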

[1] = second compound 0.1 µM, first compound 0.0316 µM
[2] = second compound 0.1 µM, first compound 0.1 µM
[3] = second compound 0.1 µM, first compound 0.316 µM
[4] = second compound 0.1 µM, first compound 1 µM
[5] = second compound 0.316 µM, first compound 0.0316 µM
[6] = second compound 0.316 µM, first compound 0.1 µM
[7] = second compound 0.316 µM, first compound 0.316 µM
[8] = second compound 0.316 µM, first compound 1 µM
[9] = second compound 1 µM, first compound 0.0316 µM
[10] = second compound 1 µM, first compound 0.1 µM
[11] = second compound 1 µM, first compound 0.316 µM
[12] = second compound 1 µM, first compound 1 µM
[13] = second compound 3.16 µM, first compound 0.0316 µM
[14] = second compound 3.16 µM, first compound 0.1 µM
[15] = second compound 3.16 µM, first compound 0.316 µM
[16] = second compound 3.16 µM, first compound 1 µM
[17] = second compound 10 µM, first compound 0.0316 µM
[18] = second compound 10 µM, first compound 0.1 µM
[19] = second compound 10 µM, first compound 0.316 µM
[20] = second compound 10 µM, first compound 1 µM
[21] = second compound 0.1 µM, first compound 3.16 µM
[22] = second compound 0.1 µM, first compound 10 µM
[23] = second compound 0.316 µM, first compound 3.16 µM
[24] = second compound 0.316 µM, first compound 10 µM
[25] = second compound 1 µM, first compound 3.16 µM
[26] = second compound 1 µM, first compound 10 µM
[27] = second compound 3.16 µM, first compound 3.16 µM
[28] = second compound 3.16 µM, first compound 10 µM
[29] = second compound 10 µM, first compound 3.16 µM
[30] = second compound 10 µM, first compound 10 µM
[31] = second compound 0.1 µM, first compound 0.00949 µM
[32] = second compound 0.1 µM, first compound 0.03 µM
[33] = second compound 0.1 µM, first compound 0.0949 µM
[34] = second compound 0.1 µM, first compound 0.3 µM
[35] = second compound 0.316 µM, first compound 0.00949 µM
[36] = second compound 0.316 µM, first compound 0.03 µM
[37] = second compound 0.316 µM, first compound 0.0949 µM
[38] = second compound 0.316 µM, first compound 0.3 µM
[39] = second compound 1 µM, first compound 0.00949 µM
[40] = second compound 1 µM, first compound 0.03 µM
[41] = second compound 1 µM, first compound 0.0949 µM
[42] = second compound 1 µM, first compound 0.3 µM
[43] = second compound 3.16 µM, first compound 0.00949 µM
[44] = second compound 3.16 µM, first compound 0.03 µM
[45] = second compound 3.16 µM, first compound 0.0949 µM
[46] = second compound 3.16 µM, first compound 0.3 µM
[47] = second compound 10 µM, first compound 0.00949 µM
[48] = second compound 10 µM, first compound 0.03 µM
[49] = second compound 10 µM, first compound 0.0949 µM
[50] = second compound 10 µM, first compound 0.3 µM
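Note: spheroids exposed to compounds for seven days after three days of growth.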

CC1COCCN1c1cc(-c2ccnn2C)c2ccnc(-c3ccn[nH]3)c2n1 (stereo not given) + CC(CO)NC(=O)c1cc(-c2ccc(Cl)cc2)nn(-c2cnn(C)c2)c1=O
7.48: pIC50 (second compound 1 µM)
7.99: pIC50 (second compound 10 µM)
7.36: pIC50 (second compound 0.1 µM)
inactive: viability, T/C (second compound 0.1 µM, first compound 0.00316 µM) 93.5% | viability, T/C (second compound 0.1 µM, first compound 0.01 µM) 91% | viability, T/C [1] 56.1% | viability, T/C [2] 31.4% | viability, T/C [3] 22.7% | viability, T/C [4] 19.7% | viability, T/C (second compound 0.316 µM, first compound 0.00316 µM) 96.8% | viability, T/C (second compound 0.316 µM, first compound 0.01 µM) 84.1% | viability, T/C [5] 56.6% | viability, T/C [6] 35.3% | viability, T/C [7] 22% | viability, T/C [8] 17.8% | viability, T/C (second compound 1 µM, first compound 0.00316 µM) 100% | viability, T/C (second compound 1 µM, first compound 0.01 µM) 90.8% | viability, T/C [9] 49% | viability, T/C [10] 29.1% | viability, T/C [11] 21.5% | viability, T/C [12] 17.3% | viability, T/C (second compound 3.16 µM, first compound 0.00316 µM) 86.6% | viability, T/C (second compound 3.16 µM, first compound 0.01 µM) 75.2% | viability, T/C [13] 46.9% | viability, T/C [14] 24.9% | viability, T/C [15] 17.7% | viability, T/C [16] 17.1% | viability, T/C (second compound 10 µM, first compound 0.00316 µM) 62.8% | viability, T/C (second compound 10 µM, first compound 0.01 µM) 51% | viability, T/C [17] 26.8% | viability, T/C [18] 19.7% | viability, T/C [19] 15.3% | viability, T/C [20] 15.8%
7.55: pIC50 (second compound 3.16 µM)
7.33: pIC50 (second compound 0.316 µM)

CC1COCCN1c1cc(C2(S(C)(=N)=O)CC2)nc(-c2ccnc3[nH]ccc23)n1 (stereo not given) + CC(CO)NC(=O)c1cc(-c2ccc(Cl)cc2)nn(-c2cnn(C)c2)c1=O
inactive: viability, T/C [1] 106% | viability, T/C [2] 114% | viability, T/C [3] 105% | viability, T/C [4] 82.9% | viability, T/C [21] 51% | viability, T/C [22] 34.4% | viability, T/C [5] 107% | viability, T/C [6] 104% | viability, T/C [7] 105% | viability, T/C [8] 87.3% | viability, T/C [23] 48.4% | viability, T/C [24] 31.9% | viability, T/C [9] 114% | viability, T/C [10] 107% | viability, T/C [11] 99.5% | viability, T/C [12] 89.4% | viability, T/C [25] 50.8% | viability, T/C [26] 31.2% | viability, T/C [13] 102% | viability, T/C [14] 88.1% | viability, T/C [15] 94.9% | viability, T/C [16] 84.3% | viability, T/C [27] 47.7% | viability, T/C [28] 28.4% | viability, T/C [17] 78.7% | viability, T/C [18] 74.2% | viability, T/C [19] 80.8% | viability, T/C [20] 63.9% | viability, T/C [29] 34.7% | viability, T/C [30] 25.4%
5.49: pIC50 (second compound 0.1 µM)
5.52: pIC50 (second compound 0.316 µM)
5.44: pIC50 (second compound 1 µM)
5.53: pIC50 (second compound 3.16 µM)
5.76: pIC50 (second compound 10 µM)

COc1ccc([C@@H](O)c2cc(-c3ncnc4cc(N5CCOCC5)ccc34)c(F)cc2Cl)nn1 + CC(CO)NC(=O)c1cc(-c2ccc(Cl)cc2)nn(-c2cnn(C)c2)c1=O
inactive: viability, T/C [1] 94.5% | viability, T/C [2] 97.8% | viability, T/C [3] 86.6% | viability, T/C [4] 59.1% | viability, T/C [21] 41.9% | viability, T/C [22] 25.1% | viability, T/C [5] 101% | viability, T/C [6] 95.1% | viability, T/C [7] 87% | viability, T/C [8] 60.5% | viability, T/C [23] 39.9% | viability, T/C [24] 24.7% | viability, T/C [9] 102% | viability, T/C [10] 98.9% | viability, T/C [11] 78.4% | viability, T/C [12] 61.4% | viability, T/C [25] 42.2% | viability, T/C [26] 28.1% | viability, T/C [13] 85.8% | viability, T/C [14] 82.6% | viability, T/C [15] 78.6% | viability, T/C [16] 52.9% | viability, T/C [27] 36% | viability, T/C [28] 24.3% | viability, T/C [17] 68% | viability, T/C [18] 77.1% | viability, T/C [19] 68.9% | viability, T/C [20] 49.9% | viability, T/C [29] 31.9% | viability, T/C [30] 23.2%
5.97: pIC50 (second compound 10 µM)
5.74: pIC50 (second compound 0.1 µM) | pIC50 (second compound 0.316 µM)
5.72: pIC50 (second compound 1 µM)
5.88: pIC50 (second compound 3.16 µM)

Nc1ncn(C2CC(O)C(CO)S2)c(=O)n1 (stereo not given) + CC(CO)NC(=O)c1cc(-c2ccc(Cl)cc2)nn(-c2cnn(C)c2)c1=O
inactive: viability, T/C (second compound 0.1 µM, first compound 0.000949 µM) 94.1% | viability, T/C (second compound 0.1 µM, first compound 0.003 µM) 94% | viability, T/C [31] 98.8% | viability, T/C [32] 91% | viability, T/C [33] 88.9% | viability, T/C [34] 73.5% | viability, T/C (second compound 0.316 µM, first compound 0.000949 µM) 92.3% | viability, T/C (second compound 0.316 µM, first compound 0.003 µM) 95% | viability, T/C [35] 96.3% | viability, T/C [36] 92.6% | viability, T/C [37] 82.7% | viability, T/C [38] 77.7% | viability, T/C (second compound 1 µM, first compound 0.000949 µM) 97.7% | viability, T/C (second compound 1 µM, first compound 0.003 µM) 103% | viability, T/C [39] 102% | viability, T/C [40] 91.8% | viability, T/C [41] 87.8% | viability, T/C [42] 80.7% | viability, T/C (second compound 3.16 µM, first compound 0.000949 µM) 90.7% | viability, T/C (second compound 3.16 µM, first compound 0.003 µM) 88.3% | viability, T/C [43] 89.4% | viability, T/C [44] 83.2% | viability, T/C [45] 82.7% | viability, T/C [46] 72.2% | viability, T/C (second compound 10 µM, first compound 0.000949 µM) 71.9% | viability, T/C (second compound 10 µM, first compound 0.003 µM) 67.7% | viability, T/C [47] 67.6% | viability, T/C [48] 67.4% | viability, T/C [49] 61.9% | viability, T/C [50] 60.5%
< 6.52: pIC50 (second compound 0.1 µM) | pIC50 (second compound 0.316 µM) | pIC50 (second compound 1 µM) | pIC50 (second compound 3.16 µM) | pIC50 (second compound 10 µM)

O=C(C=Cn1cnc(-c2cc(C(F)(F)F)cc(C(F)(F)F)c2)n1)NNc1cnccn1 + CC(CO)NC(=O)c1cc(-c2ccc(Cl)cc2)nn(-c2cnn(C)c2)c1=O
6.97: pIC50 (second compound 0.316 µM)
inactive: viability, T/C [31] 85.4% | viability, T/C [32] 91% | viability, T/C [33] 47% | viability, T/C [34] 31.1% | viability, T/C (second compound 0.1 µM, first compound 0.949 µM) 22.5% | viability, T/C (second compound 0.1 µM, first compound 3 µM) 13.4% | viability, T/C [35] 84.6% | viability, T/C [36] 75.5% | viability, T/C [37] 49.8% | viability, T/C [38] 32% | viability, T/C (second compound 0.316 µM, first compound 0.949 µM) 20.2% | viability, T/C (second compound 0.316 µM, first compound 3 µM) 13.2% | viability, T/C [39] 93.6% | viability, T/C [40] 76.5% | viability, T/C [41] 50.5% | viability, T/C [42] 28.9% | viability, T/C (second compound 1 µM, first compound 0.949 µM) 19.1% | viability, T/C (second compound 1 µM, first compound 3 µM) 14.3% | viability, T/C [43] 84.5% | viability, T/C [44] 67.8% | viability, T/C [45] 47% | viability, T/C [46] 29.6% | viability, T/C (second compound 3.16 µM, first compound 0.949 µM) 17.7% | viability, T/C (second compound 3.16 µM, first compound 3 µM) 14.7% | viability, T/C [47] 66.2% | viability, T/C [48] 58.9% | viability, T/C [49] 39.1% | viability, T/C [50] 22.4% | viability, T/C (second compound 10 µM, first compound 0.949 µM) 18.5% | viability, T/C (second compound 10 µM, first compound 3 µM) 13.2%
7.30: pIC50 (second compound 10 µM)
7.06: pIC50 (second compound 0.1 µM)
7.01: pIC50 (second compound 1 µM)
7.10: pIC50 (second compound 3.16 µM)
